Laboratory results from patent US11059855B2, “Antimicrobial peptides and methods of making and using same” (priority 2017, dated 2021).

Experiments:
[1] = previous work; cited from earlier work
[2] = ANTS/DPX leakage assay, POPC; type: biochemical; conditions: P:L = 1:1000, pH 7 phosphate buffer
Experimental: (§1) 5 mM ANTS and 12.5 mM DPX were entrapped in 0.1 μm diameter extruded vesicles with lipids. Gel filtration chromatography of Sephadex G-100 (GE Healthcare Life Sciences Inc.) was used to remove external free ANTS/DPX from LUVs with entrapped contents. […] Leakage was measured after 3 hr incubation. 10% Triton was used as the positive control to measure the maximum leakage of the vesicle. Fluorescence emission spectra were recorded using excitation wavelength (Ex: 350 nm) and emission wavelength (Em: 510 nm) for ANTS/DPX using Synergy H1 Hybrid Multi-Mode Reader.
(§2) This detects and quantifies the release of a small fluorescent dye (ANTS/DPX; MW=˜400 Da) encapsulated in LUVs after addition of library peptides. Neutral POPC LUVs serve as a simple model for mammalian membranes, while charged POPG LUVs mimic bacterial membranes enriched in anionic lipids.

[3] = Pore-size characterization by 3-kDa dextran release; type: biochemical; conditions: ‡Large pore for PG only
Description: Eight LDKA peptides with different lipid selectivity and pore sizes were selected from the high-throughput screen and sequenced. […] The most common mutation is L to A, occurred 13 times and in 7 out of the 8 peptides, followed by A to L, which occurred 6 times in 5 peptides, L to D which occurred 3 times in 3 peptides, and L to P that occurred once. Lysine (K) is not favorable to be shown at the position 6, 8, 10, 12, and 13, which is the non-polar face of the helical structure. […] More specifically, the analogs only induce leakage from anionic POPG vesicles have 4-5 leucines, which is less than the analogs that can porate both POPC and POPG vesicles and have 6-7 leucines in their sequences.

[4] = test system: Staphylococcus aureus biofilm; test: Activity against biofilm, S. aureus; type: cell-based; conditions: 100 μM peptide concentration, 3 hr treatment
Experimental: (§3) Selected analogues were tested with each (13A). Escherichia coli biofilm, (13B). Staphylococcus aureus biofilm, and (13C) Pseudomonas aeruginosa biofilm.
(§4) However, most of the LDKA analogues fail to treat S. aureus and P. aeruginosa biofilms. Only K7H and 7F3 are capable to reduce S. aureus biofilms by ˜50% with 100 μM peptide concentration, and none of the analogues work against P. aeruginosa biofilms (FIGS. 13a-13c).

[5] = Circular dichroism secondary structure (Dichroweb), peptide only; type: physicochemical; conditions: 20 °C
Experimental: (§5) Dichroweb software analyzes the secondary structure of LDKA peptides from circular dichroism spectroscope. The table presents the percentage of each helix and strand structure at different temperature. The data are analyzed using CONTIN-LL method and Reference Set 4 (Optimised for 190-240 nm).
(§6) Peptide solutions (peptide concentration is 50 μM) were titrated with POPC and POPG LUVs (50, 100, 250, 500, 1000 μM) and the corresponding changes CD spectra collected. Analysis of these spectra using CD tools and Dichroweb provides an ensemble average of the changes in secondary structure in the presence of POPC and POPG LUVs (dichroweb.cryst.bbk.ac.uk), which gives a direct measure of the binding free energies for each peptide.

[6] = provided by the distributor, GenScript; cited from earlier work
[7] = ANTS/DPX leakage assay, POPG; type: biochemical; conditions: P:L = 1:1000, pH 7 phosphate buffer
Experimental: as §1, §2

Hemolysis assay = type: cell-based, human; conditions: human
Experimental: (§7) Fresh human red blood cells were obtained from Interstate Blood Bank, Inc., and thoroughly washed in PBS until the supernatant was clear. hRBC concentration was determined using a standard hemocytometer. In hemolysis assays serial dilutions of peptide were prepared, followed by the addition of 2×10^8 hRBC/mL. After incubation for 1 hr at 37° C. the cells were centrifuged and the released hemoglobin was measured by optical absorbance of the heme group (410 nm). Negative control was buffer only (0% lysis), and the positive control was 20 μM melittin and distilled water (100% lysis). The samples were done in triplicate.

human red blood cells = test: Hemolysis assay; type: cell-based
Experimental: as §7

[8] = 3-kDa dextran macromolecule release assay, POPC; type: biochemical; conditions: P:L = 1:1000, pH 7 phosphate buffer
Experimental: Several different size dextrans were prepared and labelled with both TAMRA and biotin. Conjugated dextran was entrapped in POPC LUVs as described above. External dextran was removed by incubation with immobilized streptavidin. Streptavidin labelled with an Alexa-488 fluorophore was added during the leakage experiment with the peptide as previous described.^5 The sample was then incubated for 3 hr before measuring Alexa-488 fluorescence. A control without added peptide served as the 0% leakage signal and addition of 0.05% vol. Triton X-100 was used to determine 100% leakage.

[9] = test system: ciprofloxacin-resistant E. coli
Experimental: “N.D.” means “not determined”.
Ceftazidime is active on the bacteria's cell wall and interferes with bacterial cell wall formation.^38,39 Ciprofloxacin is able to inhibit DNA gyrase, type II topoisomerase, and topoisomerase IV to separate bacterial DNA and inhibits cell division.^40 Streptomycin and gentamicin are antibiotics that can interrupt and inhibit protein synthesis.^41,42 E. coli strain ATCC 25922 cultures were grown in the presence of each of these antibiotics at elevated concentration for 10 generations.

[10] = 3-kDa dextran macromolecule release assay, POPG; type: biochemical; conditions: P:L = 1:1000, pH 7 phosphate buffer
Escherichia coli biofilm = test: Activity against biofilm, E. coli; type: cell-based; conditions: 67-150 μM peptide, 3 hr treatment
Experimental: as §3, §4

[11] = Membrane selectivity from high-throughput dye leakage screen; type: biochemical; conditions: PC = POPC, PG = POPG
Description: as §2

[12] = Circular dichroism secondary structure (Dichroweb), with POPC; type: physicochemical
Experimental: as §5, §6

P. aeruginosa = test: Bacterial minimum inhibitory concentration (MIC), P. aeruginosa; type: cell-based, Pseudomonas aeruginosa; conditions: 75 μM maximum tested; NDA = not determinable
Experimental: (§8) Escherichia colt strain ATCC 25922, Staphylococcus aureus strain ATCC 25923, and Pseudomonas aeruginosa strain ATCC PAO1 were used in this study. Overnight cultures were subcultured to log phase (OD600=0.3-0.6) after which cell counts were determined by measuring the OD600 (OD600 1.0=1.5×10^8 CFU/mL for S. aureus, 5×10^8 CFU/mL for E. colt, and 2.04×10^8 CFU/mL for P. aeruginosa). Bacteria in minimal media mere added to serially diluted peptides and incubated for 3 hr, followed by the addition of full growth media. After overnight incubation, the optical density of the wells was recorded on a plate reader to determine whether they were sterilized (OD<0.08) or were at stationary phase growth (OD600>0.5). Intermediate values, which were rare, were considered positive for growth. Average minimum sterilizing concentrations were calculated from the lowest peptide concentration that sterilized the bacteria in each serial dilution. The samples were done in sextuplet.

[13] = Circular dichroism secondary structure (Dichroweb), with POPG; type: physicochemical
Experimental: as §5, §6

S. aureus = test: Bacterial minimum inhibitory concentration (MIC), S. aureus; type: cell-based, Staphylococcus aureus; conditions: 75 μM maximum tested; NDA = not determinable
Experimental: as §8

[14] = test system: methicillin-resistant Staphylococcus aureus (MRSA); type: cell-based; conditions: 75 μM maximum tested; NDA = not determinable

Row | Substance | Peptide-only, Helix [5] [%] | Peptide-only, Strand [5] [%] | Solubility, DMSO [6] [µg/mL] | Solubility, DPBS pH 7.1 [6] [mg/mL] | Solubility, Ultrapure Water [6] [µg/mL] | Peptide-POPC, Helix ([12]; 20 °C) [%] | Peptide-POPC, Strand ([12]; 20 °C) [%] | Peptide-POPC, Helix ([12]; 45 °C) [%] | Peptide-POPC, Strand ([12]; 45 °C) [%] | Peptide-POPC, Helix ([12]; 70 °C) [%] | Peptide-POPC, Strand ([12]; 70 °C) [%] | Peptide-POPC, Helix ([12]; 95 °C) [%] | Peptide-POPC, Strand ([12]; 95 °C) [%] | Minimum Inhibitory Concentration, P. aeruginosa (P. aeruginosa) | Peptide-POPG, Helix ([13]; 20 °C) [%] | Peptide-POPG, Strand ([13]; 20 °C) [%] | Peptide-POPG, Helix ([13]; 45 °C) [%] | Peptide-POPG, Strand ([13]; 45 °C) [%] | Peptide-POPG, Helix ([13]; 70 °C) [%] | Peptide-POPG, Strand ([13]; 70 °C) [%] | further results
1 | GL5RL5G: polyleucine-based peptide of the acetyl-GLnRLnG-amide family, n=5 (SEQ ID NO: 28) (Ac-GLLLLLRLLLLLG-NH2) |  |  |  |  |  |  |  |  |  |  |  |  |  |  |  |  |  |  |  |  | ΔGS→TM [1]: 2.1 ± 0.2 kcal/mol
2 | GL6RL6G: polyleucine-based peptide of the acetyl-GLnRLnG-amide family, n=6 (SEQ ID NO: 29) (Ac-GLLLLLLRLLLLLLG-NH2) |  |  |  |  |  |  |  |  |  |  |  |  |  |  |  |  |  |  |  |  | ΔGS→TM [1]: 0.5 ± 0.3 kcal/mol
3 | H-GLADLAKLLLKLLGW-NH2 [Peptide 7F3] | 75 | 4 | 15000 | <0.1 | 5000 | 82 | 1 | 77 | 2 | 76 | 3 | 70 | 4 | NDA | 52 | 12 | 58 | 7 | 66 | 2 | ANTS/DPX release, POPC [2]: 88%; Pore size [3]: Small; Reduction of S. aureus biofilms [4]: ~50%; ANTS/DPX release, POPG [7]: 106%; HC50 at 1 hr (Hemolysis assay): 1100 nM; Hemolytic activity (in words) (human red blood cells): significantly haemolytic; 3-kDa Dextran release, POPC [8]: -3%; MIC, ciprofloxacin-resistant E. coli [9]: completely fail; 3-kDa Dextran release, POPG [10]: 46%; Elimination of E. coli biofilm (Escherichia coli biofilm): ~50%; Membrane selectivity (POPC vs POPG vesicles) [11]: Non-selective; Peptide-POPG, Helix ([13]; 95 °C): 76%; Peptide-POPG, Strand ([13]; 95 °C): 2%
4 | H-GLLDLLHLLLKAAGW-NH2 [Peptide K7H] | 62 | 4 | 15000 | <0.1 | 1000 | 65 | 5 | 80 | 1 | 80 | 2 | 72 | 3 | does not inhibit and NDA | 53 | 11 | 59 | 8 | 77 | 2 | Reduction of S. aureus biofilms [4]: ~50%; CC50 at 1 hr (Hemolysis assay): 2.3 µM; Minimum Inhibitory Concentration, S. aureus (S. aureus): 3 µM; Peptide-POPG, Helix ([13]; 95 °C): 77%; Peptide-POPG, Strand ([13]; 95 °C): 2%
5 | H-GLLDLLKLLLKLAGW-NH2 [Peptide 28H6] | 63 | 4 | 15000 | <0.1 | 500 | 58 | 10 | 64 | 6 | 68 | 6 | 65 | 3 | NDA | 18 | 32 | 23 | 29 | 27 | 25 | ANTS/DPX release, POPC [2]: 99%; Pore size [3]: Large; Minimum Inhibitory Concentration, MRSA [14]: NDA; ANTS/DPX release, POPG [7]: 105%; HC50 at 1 hr (Hemolysis assay): 1200 nM; Hemolytic activity (in words) (human red blood cells): significantly haemolytic; 3-kDa Dextran release, POPC [8]: 38%; 3-kDa Dextran release, POPG [10]: 67%; Minimum Inhibitory Concentration, S. aureus (S. aureus): NDA; Membrane selectivity (POPC vs POPG vesicles) [11]: Non-selective; Peptide-POPG, Helix ([13]; 95 °C): 55%; Peptide-POPG, Strand ([13]; 95 °C): 7%
